Source: the kinase profiling compilation of Christmann-Franck et al. (2016)

Experiments:
[1] = target: PIM1 (human) (UniProt P11309); test: SelectScreen, TR FRET
[2] = target: PIM2 (human) (UniProt Q9P1W9); test: SelectScreen, TR FRET
[3] = target: PLK4 (human) (UniProt O00444); test: KINOMEscan competition binding; conditions: compound 10.0 µM
[4] = tested on: KIT (human), P10721 [V559D]; test: KINOMEscan competition binding; conditions: compound 10.0 µM
[5] = target: DDR1 (human) (UniProt Q08345); test: KINOMEscan competition binding; conditions: compound 10.0 µM
[6] = target: MARK3 (human) (UniProt P27448); test: KINOMEscan competition binding; conditions: compound 10.0 µM
[7] = target: STK17A (human) (UniProt Q9UEE5); test: KINOMEscan competition binding; conditions: compound 10.0 µM
[8] = target: STK10 (human) (UniProt O94804); test: KINOMEscan competition binding; conditions: compound 10.0 µM
[9] = target: CSNK2A2 (human) (UniProt P19784); test: KINOMEscan competition binding; conditions: compound 10.0 µM
Sequence of CSNK2A2 (human) (P19784 whole entry, looked up): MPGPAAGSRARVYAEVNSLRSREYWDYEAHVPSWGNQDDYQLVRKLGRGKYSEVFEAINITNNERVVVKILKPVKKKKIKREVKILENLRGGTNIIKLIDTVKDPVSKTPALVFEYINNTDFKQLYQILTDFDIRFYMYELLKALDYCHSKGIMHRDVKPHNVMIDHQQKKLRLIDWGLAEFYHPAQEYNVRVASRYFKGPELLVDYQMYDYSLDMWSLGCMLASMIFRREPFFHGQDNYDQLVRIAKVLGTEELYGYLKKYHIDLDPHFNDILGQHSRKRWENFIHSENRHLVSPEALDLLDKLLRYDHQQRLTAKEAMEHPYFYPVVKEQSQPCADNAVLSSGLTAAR

[10] = target: RPS6KA1 KD2 (human) (UniProt Q15418); test: KINOMEscan competition binding; conditions: compound 10.0 µM
[11] = tested on: KIT (human), P10721 [V559D/T670I]; test: KINOMEscan competition binding; conditions: compound 10.0 µM
Sequence of KIT (human), P10721 [V559D/T670I] (P10721 whole entry V559D/T670I, looked up): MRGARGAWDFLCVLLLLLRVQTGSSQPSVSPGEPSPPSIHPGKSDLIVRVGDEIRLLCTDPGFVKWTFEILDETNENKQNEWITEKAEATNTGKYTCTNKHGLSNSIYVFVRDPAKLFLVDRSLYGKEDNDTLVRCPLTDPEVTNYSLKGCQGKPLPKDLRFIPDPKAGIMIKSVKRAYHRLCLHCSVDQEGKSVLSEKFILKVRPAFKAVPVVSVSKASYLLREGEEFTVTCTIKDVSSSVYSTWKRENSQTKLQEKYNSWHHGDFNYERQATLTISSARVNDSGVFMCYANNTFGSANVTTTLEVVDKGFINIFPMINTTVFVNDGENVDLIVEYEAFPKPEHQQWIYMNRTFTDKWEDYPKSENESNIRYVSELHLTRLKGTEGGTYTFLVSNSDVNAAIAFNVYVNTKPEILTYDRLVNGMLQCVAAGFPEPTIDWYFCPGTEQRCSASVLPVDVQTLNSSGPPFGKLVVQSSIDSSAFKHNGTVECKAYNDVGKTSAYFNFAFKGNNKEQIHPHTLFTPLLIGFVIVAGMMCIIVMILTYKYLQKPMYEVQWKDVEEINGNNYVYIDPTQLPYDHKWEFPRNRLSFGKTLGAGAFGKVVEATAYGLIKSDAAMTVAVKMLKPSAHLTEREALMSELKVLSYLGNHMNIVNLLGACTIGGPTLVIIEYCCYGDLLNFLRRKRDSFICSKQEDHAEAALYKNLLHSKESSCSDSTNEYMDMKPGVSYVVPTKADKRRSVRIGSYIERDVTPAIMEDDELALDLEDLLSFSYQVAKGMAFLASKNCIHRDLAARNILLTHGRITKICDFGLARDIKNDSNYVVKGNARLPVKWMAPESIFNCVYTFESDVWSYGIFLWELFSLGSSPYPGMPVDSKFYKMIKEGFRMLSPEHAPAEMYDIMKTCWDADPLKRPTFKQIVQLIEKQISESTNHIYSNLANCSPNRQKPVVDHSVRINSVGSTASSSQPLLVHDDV

[12] = target: PHKG1 (human) (UniProt Q16816); test: KINOMEscan competition binding; conditions: compound 10.0 µM
[13] = target: DAPK1 (human) (UniProt P53355); test: KINOMEscan competition binding; conditions: compound 10.0 µM
[14] = target: STK17B (human) (UniProt O94768); test: KINOMEscan competition binding; conditions: compound 10.0 µM
[15] = target: TLK1 (human) (UniProt Q9UKI8); test: KINOMEscan competition binding; conditions: compound 10.0 µM
Sequence of TLK1 (human) (Q9UKI8 whole entry, looked up): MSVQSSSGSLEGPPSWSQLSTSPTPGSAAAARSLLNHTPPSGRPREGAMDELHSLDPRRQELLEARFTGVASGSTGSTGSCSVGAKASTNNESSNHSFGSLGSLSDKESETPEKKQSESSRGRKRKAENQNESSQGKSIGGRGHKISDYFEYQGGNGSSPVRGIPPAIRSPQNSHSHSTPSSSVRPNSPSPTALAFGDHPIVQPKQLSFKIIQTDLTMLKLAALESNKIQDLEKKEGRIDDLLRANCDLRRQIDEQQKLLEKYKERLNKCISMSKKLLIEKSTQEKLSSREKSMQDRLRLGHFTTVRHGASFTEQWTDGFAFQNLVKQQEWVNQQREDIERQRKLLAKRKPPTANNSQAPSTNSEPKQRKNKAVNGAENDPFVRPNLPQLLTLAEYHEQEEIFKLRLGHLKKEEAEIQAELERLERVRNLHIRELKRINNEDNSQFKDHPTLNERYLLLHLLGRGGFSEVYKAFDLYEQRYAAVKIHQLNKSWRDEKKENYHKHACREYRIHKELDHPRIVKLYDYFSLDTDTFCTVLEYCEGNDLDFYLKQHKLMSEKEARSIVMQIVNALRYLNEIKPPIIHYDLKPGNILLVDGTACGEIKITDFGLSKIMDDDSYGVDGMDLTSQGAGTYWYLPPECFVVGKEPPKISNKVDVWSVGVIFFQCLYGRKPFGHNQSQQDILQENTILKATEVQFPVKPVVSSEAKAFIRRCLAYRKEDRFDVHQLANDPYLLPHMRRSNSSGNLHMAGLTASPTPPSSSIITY

[16] = target: CDC2L2 (human) (UniProt Q9UQ88); test: KINOMEscan competition binding; conditions: compound 10.0 µM
[17] = target: CSNK2A1 (human) (UniProt P68400); test: KINOMEscan competition binding; conditions: compound 10.0 µM
[18] = target: STK24 (human) (UniProt Q9Y6E0); test: KINOMEscan competition binding; conditions: compound 10.0 µM
Sequence of STK24 (human) (Q9Y6E0 whole entry, looked up): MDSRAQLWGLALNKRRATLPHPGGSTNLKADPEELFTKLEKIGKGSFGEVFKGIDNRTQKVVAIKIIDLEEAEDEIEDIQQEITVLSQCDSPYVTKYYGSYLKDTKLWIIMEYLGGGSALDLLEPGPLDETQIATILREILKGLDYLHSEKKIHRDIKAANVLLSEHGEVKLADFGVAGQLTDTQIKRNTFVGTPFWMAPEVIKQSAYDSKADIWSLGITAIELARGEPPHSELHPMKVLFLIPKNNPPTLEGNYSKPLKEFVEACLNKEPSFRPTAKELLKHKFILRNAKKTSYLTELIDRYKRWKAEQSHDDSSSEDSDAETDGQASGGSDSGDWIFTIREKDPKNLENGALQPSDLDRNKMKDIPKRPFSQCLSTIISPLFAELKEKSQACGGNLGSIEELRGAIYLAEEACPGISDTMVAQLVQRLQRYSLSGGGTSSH

[19] = tested on: RET (human), P07949 [M918T]; test: KINOMEscan competition binding; conditions: compound 10.0 µM
[20] = target: MAPK8 (human) (UniProt P45983); test: KINOMEscan competition binding; conditions: compound 10.0 µM
[21] = target: RET (human) (UniProt P07949); test: KINOMEscan competition binding; conditions: compound 10.0 µM
[22] = target: CDK11A (human) (UniProt Q9UQ88); test: KINOMEscan competition binding; conditions: compound 10.0 µM
[23] = target: PDGFRB (human) (UniProt P09619); test: KINOMEscan competition binding; conditions: compound 10.0 µM
[24] = target: CDK11B (human) (UniProt P21127); test: KINOMEscan competition binding; conditions: compound 10.0 µM
[25] = target: TIE1 (human) (UniProt P35590); test: KINOMEscan competition binding; conditions: compound 10.0 µM
[26] = target: PIM1 (human) (UniProt P11309); test: KINOMEscan competition binding; conditions: compound 10.0 µM
[27] = target: RPS6KA6 KD2 (human) (UniProt Q9UK32); test: KINOMEscan competition binding; conditions: compound 10.0 µM
[28] = target: PIM2 (human) (UniProt Q9P1W9); test: KINOMEscan competition binding; conditions: compound 10.0 µM
[29] = target: HIPK1 (human) (UniProt Q86Z02); test: KINOMEscan competition binding; conditions: compound 10.0 µM
[30] = target: FLT1 (human) (UniProt P17948); test: KINOMEscan competition binding; conditions: compound 10.0 µM
[31] = target: PIM3 (human) (UniProt Q86V86); test: KINOMEscan competition binding; conditions: compound 10.0 µM
[32] = target: KDR (human) (UniProt P35968); test: KINOMEscan competition binding; conditions: compound 10.0 µM
[33] = target: KIT (human) (UniProt P10721); test: KINOMEscan competition binding; conditions: compound 10.0 µM
[34] = target: RPS6KA2 KD2 (human) (UniProt Q15349); test: KINOMEscan competition binding; conditions: compound 10.0 µM
Sequence of RPS6KA2 KD2 (human) (Q15349 whole entry, looked up): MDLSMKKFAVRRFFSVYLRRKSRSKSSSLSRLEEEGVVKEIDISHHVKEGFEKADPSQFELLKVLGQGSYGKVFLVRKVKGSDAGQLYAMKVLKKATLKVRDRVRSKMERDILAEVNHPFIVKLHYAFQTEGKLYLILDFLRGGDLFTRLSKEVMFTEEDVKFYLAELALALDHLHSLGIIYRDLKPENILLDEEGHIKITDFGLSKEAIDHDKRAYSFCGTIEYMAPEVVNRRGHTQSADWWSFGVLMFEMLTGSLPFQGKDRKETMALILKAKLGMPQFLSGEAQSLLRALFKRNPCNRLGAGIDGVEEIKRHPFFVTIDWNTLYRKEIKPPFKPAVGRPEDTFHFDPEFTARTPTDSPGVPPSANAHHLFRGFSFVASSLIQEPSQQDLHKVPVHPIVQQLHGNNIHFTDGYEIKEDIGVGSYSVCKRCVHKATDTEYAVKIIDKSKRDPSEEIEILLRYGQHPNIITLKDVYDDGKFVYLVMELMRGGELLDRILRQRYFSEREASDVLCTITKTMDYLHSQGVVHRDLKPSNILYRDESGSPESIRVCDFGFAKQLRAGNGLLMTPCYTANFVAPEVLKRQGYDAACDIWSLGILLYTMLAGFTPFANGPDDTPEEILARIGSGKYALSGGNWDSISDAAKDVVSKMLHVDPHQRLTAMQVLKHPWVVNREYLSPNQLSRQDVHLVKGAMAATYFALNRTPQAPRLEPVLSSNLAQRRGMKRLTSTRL

[35] = target: PDGFRA (human) (UniProt P16234); test: KINOMEscan competition binding; conditions: compound 10.0 µM
Sequence of PDGFRA (human) (P16234 whole entry, looked up): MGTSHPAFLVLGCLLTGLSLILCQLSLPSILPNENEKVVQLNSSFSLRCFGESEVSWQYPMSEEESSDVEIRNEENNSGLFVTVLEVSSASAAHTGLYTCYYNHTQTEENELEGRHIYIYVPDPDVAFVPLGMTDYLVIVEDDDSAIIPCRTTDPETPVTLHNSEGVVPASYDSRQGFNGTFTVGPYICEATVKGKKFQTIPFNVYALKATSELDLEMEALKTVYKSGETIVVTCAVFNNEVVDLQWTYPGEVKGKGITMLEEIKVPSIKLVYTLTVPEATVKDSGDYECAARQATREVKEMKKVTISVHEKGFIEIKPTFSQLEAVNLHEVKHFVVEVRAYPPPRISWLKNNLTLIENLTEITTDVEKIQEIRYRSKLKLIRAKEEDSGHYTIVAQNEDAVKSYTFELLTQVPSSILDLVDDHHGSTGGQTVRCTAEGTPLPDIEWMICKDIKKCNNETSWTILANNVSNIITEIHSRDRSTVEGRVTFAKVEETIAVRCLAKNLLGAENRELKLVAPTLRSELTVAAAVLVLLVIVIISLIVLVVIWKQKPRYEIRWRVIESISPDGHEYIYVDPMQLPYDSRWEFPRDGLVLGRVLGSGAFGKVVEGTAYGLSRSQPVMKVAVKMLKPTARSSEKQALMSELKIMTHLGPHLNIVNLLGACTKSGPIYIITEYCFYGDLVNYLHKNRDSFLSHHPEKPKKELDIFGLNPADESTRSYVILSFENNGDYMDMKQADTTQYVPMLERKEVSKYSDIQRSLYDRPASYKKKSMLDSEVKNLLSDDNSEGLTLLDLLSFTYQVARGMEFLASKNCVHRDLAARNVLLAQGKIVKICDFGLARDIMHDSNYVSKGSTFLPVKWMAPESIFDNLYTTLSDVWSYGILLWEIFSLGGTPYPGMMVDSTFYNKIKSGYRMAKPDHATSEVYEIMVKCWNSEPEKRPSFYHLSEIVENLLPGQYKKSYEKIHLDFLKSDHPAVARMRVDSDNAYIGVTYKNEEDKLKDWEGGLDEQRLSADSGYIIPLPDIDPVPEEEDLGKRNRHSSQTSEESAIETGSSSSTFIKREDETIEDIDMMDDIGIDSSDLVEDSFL

[36] = target: FLT4 (human) (UniProt P35916); test: KINOMEscan competition binding; conditions: compound 10.0 µM
[37] = target: SLK (human) (UniProt Q9H2G2); test: KINOMEscan competition binding; conditions: compound 10.0 µM
[38] = target: DDR2 (human) (UniProt Q16832); test: KINOMEscan competition binding; conditions: compound 10.0 µM

Sequence of PIM1 (human) (P11309 whole entry, looked up): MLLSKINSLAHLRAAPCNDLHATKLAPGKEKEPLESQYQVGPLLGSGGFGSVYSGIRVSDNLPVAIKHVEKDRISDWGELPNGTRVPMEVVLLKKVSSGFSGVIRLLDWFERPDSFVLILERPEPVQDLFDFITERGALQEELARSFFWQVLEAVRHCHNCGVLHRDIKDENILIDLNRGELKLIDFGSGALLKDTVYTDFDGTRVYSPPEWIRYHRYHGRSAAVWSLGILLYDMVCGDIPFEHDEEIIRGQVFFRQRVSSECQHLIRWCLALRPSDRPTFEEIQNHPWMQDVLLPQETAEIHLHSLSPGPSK
Sequence of PIM2 (human) (Q9P1W9 whole entry, looked up): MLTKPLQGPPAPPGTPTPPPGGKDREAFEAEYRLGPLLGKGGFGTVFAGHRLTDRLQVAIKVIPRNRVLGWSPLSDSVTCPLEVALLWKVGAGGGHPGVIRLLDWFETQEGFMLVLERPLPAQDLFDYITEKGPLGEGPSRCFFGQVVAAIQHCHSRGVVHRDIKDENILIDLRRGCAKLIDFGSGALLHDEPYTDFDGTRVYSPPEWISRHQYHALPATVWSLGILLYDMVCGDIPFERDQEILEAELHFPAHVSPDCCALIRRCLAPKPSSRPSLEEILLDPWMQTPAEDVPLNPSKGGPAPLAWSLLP
Sequence of KIT (human), P10721 [V559D] (P10721 whole entry V559D, looked up): as the sequence (P10721 whole entry V559D/T670I, looked up) above, with I670T counted along it

CCN1CCN(Cc2cc(NC(=O)c3cccc4cc(-c5ccc(/C=C6\SC(=O)NC6=O)o5)ccc34)cc(C(F)(F)F)c2)CC1
IC50 [1]: 774 nM | IC50 [2]: 814 nM | kinase still bound, per cent of control [3]: 33% | kinase still bound, per cent of control [4]: 1.2% | kinase still bound, per cent of control [5]: 0.15% | kinase still bound, per cent of control [6]: 32% | kinase still bound, per cent of control [7]: 15% | kinase still bound, per cent of control [8]: 0.15% | kinase still bound, per cent of control [9]: 6.4% | kinase still bound, per cent of control [10]: 18% | kinase still bound, per cent of control [11]: 2.4% | kinase still bound, per cent of control [12]: 0% | kinase still bound, per cent of control [13]: 34% | kinase still bound, per cent of control [14]: 0.3% | kinase still bound, per cent of control [15]: 13% | kinase still bound, per cent of control [16]: 18% | kinase still bound, per cent of control [17]: 4.6% | kinase still bound, per cent of control [18]: 25% | kinase still bound, per cent of control [19]: 3.9% | kinase still bound, per cent of control [20]: 32% | kinase still bound, per cent of control [21]: 4.6% | kinase still bound, per cent of control [22]: 24% | kinase still bound, per cent of control [23]: 0.25% | kinase still bound, per cent of control [24]: 30% | kinase still bound, per cent of control [25]: 5.8% | kinase still bound, per cent of control [26]: 11% | kinase still bound, per cent of control [27]: 20% | kinase still bound, per cent of control [28]: 0.4% | kinase still bound, per cent of control [29]: 5.4% | kinase still bound, per cent of control [30]: 12% | kinase still bound, per cent of control [31]: 7% | kinase still bound, per cent of control [32]: 9% | kinase still bound, per cent of control [33]: 2.6% | kinase still bound, per cent of control [34]: 29% | kinase still bound, per cent of control [35]: 0.55% | kinase still bound, per cent of control [36]: 5.9% | kinase still bound, per cent of control [37]: 30% | kinase still bound, per cent of control [38]: 7.6%
